Experimental findings from patent publication US20150119422A1, “SIMETHICONE FORMULATION” (DISPHAR INTERNATIONAL B.V., priority 2011, published 2015) are described below.

The data set is classed as physicochemical. The settings on record: pH range of 1 to 7. On the procedure:
Dissolution studies for determining release of the active ingredient at various pHs were carried out using a TDT-08 L dissolution apparatus from Electrolab®.
The above-mentioned tablets were studied for release profile, at 30 minutes, in solutions of varied pH such as 1.2, 4.5 and 6.8 respectively in aqueous solutions of 0.1 N HCl, acetate buffer and phosphate buffer.

Structures can show the parent of a compound that is named as a salt.

As for `CN(C)C(=O)C(CCN1CCC(O)(c2ccc(Cl)cc2)CC1)(c1ccccc1)c1ccccc1` [loperamide hydrochloride], the “pH dependence of release / dissolution” value is reported as “pH dependent dissolution characteristics”.
